For 11 molecules, Kd results are on record in US20250064941A1, “SIGLEC LIGANDS, CONJUGATES, AND METHODS OF USE THEREOF” (Osprey Biopharmaceuticals, Inc., priority 2023, published 2025).

The target in experiment [1] is T1, mouse Siglec-2-Fc-Avi (CD22) (Mus musculus, UniProt P35329).
T1 construct: made in house
T1 sequence (P35329 22-708 limits assumed): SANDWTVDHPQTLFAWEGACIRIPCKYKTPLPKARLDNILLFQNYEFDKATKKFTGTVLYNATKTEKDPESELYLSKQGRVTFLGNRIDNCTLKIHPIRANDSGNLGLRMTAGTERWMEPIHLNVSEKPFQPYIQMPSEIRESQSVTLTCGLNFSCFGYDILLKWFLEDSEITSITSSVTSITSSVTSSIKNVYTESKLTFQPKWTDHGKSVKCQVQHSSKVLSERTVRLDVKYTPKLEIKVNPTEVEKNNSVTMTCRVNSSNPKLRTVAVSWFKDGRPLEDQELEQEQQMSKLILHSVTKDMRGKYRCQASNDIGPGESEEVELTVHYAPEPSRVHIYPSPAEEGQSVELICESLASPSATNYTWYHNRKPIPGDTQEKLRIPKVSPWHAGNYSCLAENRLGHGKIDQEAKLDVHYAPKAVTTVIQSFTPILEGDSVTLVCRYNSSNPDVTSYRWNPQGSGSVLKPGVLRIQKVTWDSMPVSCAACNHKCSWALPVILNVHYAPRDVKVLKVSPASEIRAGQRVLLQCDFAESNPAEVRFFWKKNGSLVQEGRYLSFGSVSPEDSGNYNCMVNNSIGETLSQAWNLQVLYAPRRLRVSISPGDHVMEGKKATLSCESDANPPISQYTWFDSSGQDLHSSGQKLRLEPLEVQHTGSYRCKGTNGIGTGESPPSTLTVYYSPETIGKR
In words: SPR binding affinity to mouse CD22. To be noted: steady-state analysis. In short, it runs like this:
(§1)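 Biotinylated CD22 desialylated with SialoExo (4 h, 37° C) before capture on streptavidin chip. Running buffer 10 mM HEPES, 150 mM NaCl, 0.05% Tween-20, pH 7.5, 1% DMSO, with DMSO solvent correction; 120 s dissociation. Compound affinities from steady-state analysis.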
A general note: Surface plasmon resonance follows binding to a sensor surface in real time, without labels.

The target in experiment [2] is T2, human Siglec-2/CD22 protein (Homo sapiens, UniProt P20273).
T2 construct: purchased Acro Biosystems SI2-H82E3
T2 sequence (P20273 20-847): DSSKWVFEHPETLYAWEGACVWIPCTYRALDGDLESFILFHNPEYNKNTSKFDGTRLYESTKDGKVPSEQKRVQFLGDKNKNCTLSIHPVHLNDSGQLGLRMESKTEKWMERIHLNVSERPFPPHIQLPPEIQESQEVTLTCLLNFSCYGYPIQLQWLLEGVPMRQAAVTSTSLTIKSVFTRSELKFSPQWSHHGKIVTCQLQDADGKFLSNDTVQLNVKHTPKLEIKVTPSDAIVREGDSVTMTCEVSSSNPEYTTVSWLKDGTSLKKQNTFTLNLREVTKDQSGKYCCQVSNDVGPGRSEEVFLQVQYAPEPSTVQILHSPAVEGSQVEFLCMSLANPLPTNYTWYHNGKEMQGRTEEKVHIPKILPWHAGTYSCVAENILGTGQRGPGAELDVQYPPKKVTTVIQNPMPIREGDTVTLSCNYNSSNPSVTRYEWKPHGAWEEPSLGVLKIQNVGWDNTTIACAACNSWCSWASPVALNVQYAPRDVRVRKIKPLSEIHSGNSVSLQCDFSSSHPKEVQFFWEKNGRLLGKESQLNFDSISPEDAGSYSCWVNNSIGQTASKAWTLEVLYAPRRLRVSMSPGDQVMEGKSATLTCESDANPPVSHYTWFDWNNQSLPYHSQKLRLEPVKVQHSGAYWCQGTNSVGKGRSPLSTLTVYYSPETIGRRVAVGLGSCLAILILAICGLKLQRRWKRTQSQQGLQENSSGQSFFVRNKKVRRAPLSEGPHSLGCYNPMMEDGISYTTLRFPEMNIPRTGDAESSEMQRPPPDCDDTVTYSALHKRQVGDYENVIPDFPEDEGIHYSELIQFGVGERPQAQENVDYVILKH
In words: SPR binding affinity to human CD22. To be noted: steady-state analysis. In short, it runs like this:
as §1

Experiment [3] has as its target cynomolgus Siglec-2/CD22 (Macaca fascicularis, UniProt A0A2K5WCZ6). Kind of experiment: biochemical. To be noted: SPR, steady-state analysis; read-out: Affinity cyno CD22. It is filed as binding. In short, it runs like this:
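SPR with desialylated (SialoExo, 4 h, 37° C.) cynomolgus CD22 amine-coupled to a CM5 chip. Running buffer 10 mM HEPES, 150 mM NaCl, 0.05% Tween-20, pH 7.5, 1% DMSO, with solvent correction; 120 s dissociation. Affinities from steady-state analysis.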

Bounds are passed on as bounds.

Chain of cynomolgus Siglec-2/CD22 (A0A2K5WCZ6 entry or part of it): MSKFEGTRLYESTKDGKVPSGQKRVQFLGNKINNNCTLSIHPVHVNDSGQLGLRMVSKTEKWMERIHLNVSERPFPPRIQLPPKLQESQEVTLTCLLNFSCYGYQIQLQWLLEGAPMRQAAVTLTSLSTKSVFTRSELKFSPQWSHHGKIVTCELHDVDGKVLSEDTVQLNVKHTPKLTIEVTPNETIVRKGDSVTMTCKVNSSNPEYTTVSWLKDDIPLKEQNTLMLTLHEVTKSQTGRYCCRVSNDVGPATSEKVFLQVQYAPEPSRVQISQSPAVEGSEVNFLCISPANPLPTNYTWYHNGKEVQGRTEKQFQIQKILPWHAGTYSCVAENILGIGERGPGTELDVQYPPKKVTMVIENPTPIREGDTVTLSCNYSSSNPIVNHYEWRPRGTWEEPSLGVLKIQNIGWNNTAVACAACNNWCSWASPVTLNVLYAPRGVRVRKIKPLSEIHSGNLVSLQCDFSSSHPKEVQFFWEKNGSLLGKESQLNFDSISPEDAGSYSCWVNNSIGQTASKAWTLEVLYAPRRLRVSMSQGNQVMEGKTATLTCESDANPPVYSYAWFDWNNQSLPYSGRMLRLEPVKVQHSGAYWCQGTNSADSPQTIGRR

With `C#CCCOc1ccc(CO[C@]2(C(=O)O)C[C@H](O)[C@@H](N)[C@H]([C@H](O)[C@H](O)CNC(=O)Cc3ccc(-c4ccc(O)cc4)cc3)O2)cc1` [Compound 55, (2R,4S,5R,6R)-5-amino-2-((4-(but-3-yn-1-yloxy)benzyl)oxy)-6-((1R,2R)-1,2-dihydroxy-3-(2-(4′-hydroxy-[1,1′-biphenyl]-4-yl)acetamido)propyl)-4-hydroxytetrahydro-2H-pyran-2-carboxylic acid], the values for the Kd in experiment [1], in experiment [2] and in experiment [3] were less than 1000 nM, 1000 to 10000 nM and 1000 to 10000 nM, respectively.

With `C#CCOc1ccc(CO[C@]2(C(=O)O)C[C@H](O)[C@@H](NC(=O)CO)[C@H]([C@H](O)[C@H](O)CNC(=O)Cc3ccc(-c4ccc(O)cc4)cc3C)O2)cc1` [Compound 56, (2R,4S,5R,6R)-6-((1R,2R)-1,2-dihydroxy-3-(2-(4′-hydroxy-3-methyl-[1,1′-biphenyl]-4-yl)acetamido)propyl)-4-hydroxy-5-(2-hydroxyacetamido)-2-((4-(prop-2-yn-1-yloxy)benzyl)oxy)tetrahydro-2H-pyran-2-carboxylic acid], the Kd is less than 1000 nM in experiment [1], less than 1000 nM in experiment [2] and 1000 to 10000 nM in experiment [3].

`C#CCOCCOCCO[C@]1(C(=O)O)C[C@H](O)[C@@H](NC(=O)CNC(C)=O)[C@H]([C@H](O)[C@H](O)CNC(=O)Cc2ccc(-c3ccc(O)cc3)cc2)O1` [Compound 57, (2R,4S,5R,6R)-5-(2-acetamidoacetamido)-6-((1R,2R)-1,2-dihydroxy-3-(2-(4′-hydroxy-[1,1′-biphenyl]-4-yl)acetamido)propyl)-4-hydroxy-2-(2-(2-(prop-2-yn-1-yloxy)ethoxy)ethoxy)tetrahydro-2H-pyran-2-carboxylic acid]: the values for the Kd in experiment [1], in experiment [2] and in experiment [3] were more than 10000 nM, 1000 to 10000 nM and 1000 to 10000 nM, respectively.

Consider `C#CCOCCOCCO[C@]1(C(=O)O)C[C@H](O)[C@@H](NC(=O)CC#N)[C@H]([C@H](O)[C@H](O)CNC(=O)Cc2ccc(-c3ccc(O)cc3)cc2)O1` [Compound 58, (2R,4S,5R,6R)-5-(2-cyanoacetamido)-6-((1R,2R)-1,2-dihydroxy-3-(2-(4′-hydroxy-[1,1′-biphenyl]-4-yl)acetamido)propyl)-4-hydroxy-2-(2-(2-(prop-2-yn-1-yloxy)ethoxy)ethoxy)tetrahydro-2H-pyran-2-carboxylic acid], for which the Kd in experiment [1], in experiment [2] and in experiment [3] was 1000 to 10000 nM throughout.

Regarding `C#CCOc1ccccc1-c1cn([C@]2(C(=O)O)C[C@H](O)[C@@H](NC(=O)CO)[C@H]([C@H](O)[C@H](O)CNC(=O)Cc3ccc(-c4ccc(O)cc4)cc3)O2)nn1` [Compound 59, (2R,4S,5R,6R)-6-((1R,2R)-1,2-dihydroxy-3-(2-(4′-hydroxy-[1,1′-biphenyl]-4-yl)acetamido)propyl)-4-hydroxy-5-(2-hydroxyacetamido)-2-(4-(2-(prop-2-yn-1-yloxy)phenyl)-1H-1,2,3-triazol-1-yl)tetrahydro-2H-pyran-2-carboxylic acid], the Kd in experiment [1] is 1000 to 10000 nM; in experiment [2], less than 1000 nM; in experiment [3], 1000 to 10000 nM.

In the case of `C#CCOc1cccc(-c2cn([C@]3(C(=O)O)C[C@H](O)[C@@H](NC(=O)CO)[C@H]([C@H](O)[C@H](O)CNC(=O)Cc4ccc(-c5ccc(O)cc5)cc4)O3)nn2)c1` [Compound 60, (2R,4S,5R,6R)-6-((1R,2R)-1,2-dihydroxy-3-(2-(4′-hydroxy-[1,1′-biphenyl]-4-yl)acetamido)propyl)-4-hydroxy-5-(2-hydroxyacetamido)-2-(4-(3-(prop-2-yn-1-yloxy)phenyl)-1H-1,2,3-triazol-1-yl)tetrahydro-2H-pyran-2-carboxylic acid], the Kd in experiment [1], in experiment [2] and in experiment [3] was 1000 to 10000 nM each time.

In the case of `C#CCCOc1ccc(CO[C@]2(C(=O)O)C[C@H](O)[C@@H](NC(=O)NC)[C@H]([C@H](O)[C@H](O)CNC(=O)Cc3ccc(-c4ccc(O)cc4)cc3)O2)cc1` [Compound 61, (2R,4S,5R,6R)-2-((4-(but-3-yn-1-yloxy)benzyl)oxy)-6-((1R,2R)-1,2-dihydroxy-3-(2-(4′-hydroxy-[1,1′-biphenyl]-4-yl)acetamido)propyl)-4-hydroxy-5-(3-methylureido)tetrahydro-2H-pyran-2-carboxylic acid], the Kd in experiment [1], in experiment [2] and in experiment [3] was less than 1000 nM each time.

As to `C#CCOCc1cn([C@]2(C(=O)O)C[C@H](O)[C@@H](NC(=O)CO)[C@H]([C@H](O)[C@H](O)CNC(=O)Cc3ccc(-c4ccc(O)cc4)cc3)O2)nn1` [Compound 62, (2R,4S,5R,6R)-6-((1R,2R)-1,2-dihydroxy-3-(2-(4′-hydroxy-[1,1′-biphenyl]-4-yl)acetamido)propyl)-4-hydroxy-5-(2-hydroxyacetamido)-2-(4-((prop-2-yn-1-yloxy)methyl)-1H-1,2,3-triazol-1-yl)tetrahydro-2H-pyran-2-carboxylic acid], the Kd in experiment [1], in experiment [2] and in experiment [3] was 1000 to 10000 nM throughout.

As for `C#CCOCCCCCCO[C@]1(C(=O)O)C[C@H](O)[C@@H](NC(=O)CO)[C@H]([C@H](O)[C@H](O)CNC(=O)Cc2ccc(-c3ccc(O)cc3)cc2)O1` [Compound 63, (2R,4S,5R,6R)-6-((1R,2R)-1,2-dihydroxy-3-(2-(4′-hydroxy-[1,1′-biphenyl]-4-yl)acetamido)propyl)-4-hydroxy-5-(2-hydroxyacetamido)-2-((6-(prop-2-yn-1-yloxy)hexyl)oxy)tetrahydro-2H-pyran-2-carboxylic acid], the Kd in experiment [1], in experiment [2] and in experiment [3] was less than 1000 nM in each case.

On to `C#CCCOc1ccc(CS[C@]2(C(=O)O)C[C@H](O)[C@@H](NC(=O)CO)[C@H]([C@H](O)[C@H](O)CNC(=O)Cc3ccc(-c4ccc(O)cc4)cc3)O2)cc1` [Compound 64, (2S,4S,5R,6R)-2-((4-(but-3-yn-1-yloxy)benzyl)thio)-6-((1R,2R)-1,2-dihydroxy-3-(2-(4′-hydroxy-[1,1′-biphenyl]-4-yl)acetamido)propyl)-4-hydroxy-5-(2-hydroxyacetamido)tetrahydro-2H-pyran-2-carboxylic acid], for which the Kd in experiment [1], in experiment [2] and in experiment [3] was less than 1000 nM each time.

As for `C#CCOCCOCCO[C@]1(C(=O)NS(C)(=O)=O)C[C@H](O)[C@@H](NC(=O)CO)[C@H]([C@H](O)[C@H](O)CNC(=O)Cc2ccc(-c3ccc(O)cc3)cc2)O1` [Compound 65, (2R,4S,5R,6R)-6-((1R,2R)-1,2-dihydroxy-3-(2-(4′-hydroxy-[1,1′-biphenyl]-4-yl)acetamido)propyl)-4-hydroxy-5-(2-hydroxyacetamido)-N-(methylsulfonyl)-2-(2-(2-(prop-2-yn-1-yloxy)ethoxy)ethoxy)tetrahydro-2H-pyran-2-carboxamide], the Kd in experiment [1], in experiment [2] and in experiment [3] was more than 10000 nM each time.
